# Measurements reported in patent publication US10688084B2 (priority 2016, dated 2020).
# Like-named read-outs stand apart in the source and are kept apart here.
# Experiments:
# Wistar rats [1] = type: in vivo
# Method: In the study of analgesic properties of the formula I compound, were taken female and male Wistar rats aged 6-7 weeks with a body mass of 180-220 g. The number of animals in each group was 10.
# […] inflammation was modeled in rats by subplantar administration of 0.1 ml of a 1% solution of carrageenin (a sulfated polysaccharide from Irish sea moss) into the right hind paw. The substance was administered intragastrically using a gastric probe.
# Inflammatory hyperalgesia (increased pain sensitivity of inflamed tissues in rats) was caused by carrageenin and was assessed by decrease of the pain sensitivity threshold—PST (by PST difference) to mechanical irritation (squeezing) of the paw tissue of the animal before the introduction of carrageenin and 3 hours after it. The measurement was performed on the inflamed paw. Used analgesimeter Ugo Basile S.R.L. (Italy) provides a gradual increased afterload on the rat's inflamed paw until a pain reaction appears (assessed by squeaking of animal or withdrawing the paw). The analyte was administered 2 h after carrageenin administration. […] An increase in the pain response threshold under the influence of the substances under study was expressed in an increase in the force of compression of the limb and characterized the intensity of the analgesic effect of the preparation. After the experiment, animals were euthanized by carbon dioxide inhalation method.
# The introduction to rats was carried out in the amount of no more than 1 ml/100 g. The concentration of the resulting solution was 5 mg/ml.
# To prepare a dose of 20 mg/kg, 40 ml of solution with a concentration of 5 mg/ml (50 mg/kg) were taken, transferred to a 100 ml measuring flask with accuracy class A, adjusted to 100 ml with 0.5% water solution of Tween-80 and the suspension was dispersed to a homogeneous consistency using a dispersant.
# To prepare a dose of 10 mg/kg, 20 ml of solution with a concentration of 5 mg/ml (50 mg/kg) were taken, transferred to a 100 ml measuring flask with accuracy class A, adjusted to 100 ml with 0.5% aqueous solution of Tween-80 and the suspension was stirred to a homogeneous consistency with a magnetic stirrer MR Hei-Standard (Heidolph, Germany).
# To prepare a dose of 5 mg/kg, […] of solution with a concentration of 5 mg/ml (50 mg/kg) were taken, transferred to a 100 ml measuring flask with accuracy class A, adjusted to 100 ml with 0.5% water solution of Tween-80 and the suspension was stirred to a homogeneous consistency with a magnetic stirrer.
# Wistar rats [2] = settings: for Number of animals in the group/number of dead animals / LD10 / LD16 / LD84: rat; for Number of animals in the group/number of dead animals: 14 days; for LD10 / LD16 / LD84: intragastric
# Method: The experiment was performed according to the fixed dose method in Wistar rats of both sexes, 6 animals per group. […] The solvent used was a 0.5% Tween-80 solution (Tween 80—polyoxyethylene, a derivative of sorbitan and oleic acid, a commercially available polymer), which was prepared by dissolving 0.5 g of Tween-80 in 100 ml of distilled water.
# The introduction was carried out to animals deprived of food (for a period of not less than 8 hours) with free access to water. The volume of administration was calculated individually for each animal, based on the body mass recorded immediately before the introduction of the substance. Access to the feed was renewed an hour after the introduction. Animals were observed individually after administration for 30 minutes, then at least once per hour for 4 hours, then daily once a day for 14 days. Body mass was recorded immediately before the administration of the preparation to calculate the volume of administration, then once every two days. If the animal died during the study, the time of death was determined and documented as accurately as possible. The animal was weighed and dissected as soon as possible. Dying animals were weighed, euthanized and dissected. Animals were euthanized by inhalation of carbon dioxide. Toxic doses LD10, LD16, LD50 and LD84 were calculated using probit analysis with IBM SPSS Statistics software.
# At the end of the experiment, euthanasia and pathomorphological dissection of control and experimental animals were performed.
# cyclooxygenase (COX) = experiment: COX activity assay (fluorometric kit, peroxidase activity) with skin fibroblast (HSF) cell lysate; type: biochemical; settings: tested in presence of SC560 or celecoxib
# Wistar rats [3] = experiment: Gastric toxicity (ulcerogenic effect), single intragastric administration, 4-point scale; type: in vivo, rat; settings: for Gastrotoxic effect (averaged), points: 2000 mg/kg single intragastric, 3 hours
# Method: In the study of gastric toxicity were taken female and male Wistar rats aged 6-7 weeks, with a body mass of 180-220 g. The number of animals in each group was 10.
# Three hours after the administration of the suspension of the test substance at a dose of 2000 mg/kg (in 0.5% aqueous solution of Tween-80), the animals were euthanized; their stomachs were removed, dissected along the lesser curvature, and washed in physiological solution to remove the contents.
# Evaluation of gastric toxicity was performed on a 4-point scale:
# 1—single minor injuries (1 or 2 point hemorrhages);
# 2—multiple injuries (erosion, spot hemorrhages);
# 3—significant and multiple injuries of the mucosa (erosion, hemorrhage);
# 4—gross injuries covering the entire surface of the mucosa (massive hemorrhages, erosion, perforations).
# According to the results of the assessment, UD50 was determined—the dose of the tested substance causing gastrotoxic (ulcerogenic) effect corresponding to 2 points.
# The introduction to rats is carried out in the amount of no more than 5 ml/200 g.
# Animals were euthanized by carbon dioxide inhalation method.
# At a single introduction of formula I compound at a dose of 2000 mg/kg, the gastrotoxic effect corresponded to an average of 0.6 points in male rats and 0.4 in females (Table 4).
smiles,measurement,setting,value
"COc1ccc2cc([C@H](C)C(=O)OCc3cnc(C)c(OC(=O)[C@@H](C)c4ccc5cc(OC)ccc5c4)c3COC(=O)[C@@H](C)c3ccc4cc(OC)ccc4c3)ccc2c1 [Compound of formula I, 3-((S)-2-(6-methoxynaphth-2-yl)propanoiloxy)-4,5-bis (((S)-2-(6-methoxinaphtht-2-yl)propanoiloxy)methyl)-2-methylpyridinium (S)-2-(6-methoxynaphth-2-yl) propanoate]","Analgesic effect, total/analgesic effect","Wistar rats [1]; females, 5 mg/kg",10/9
same,Paw volume 0 hours,"Wistar rats [1]; females, 5 mg/kg",3.9 ± 1.4
same,Paw volume 3 hours,"Wistar rats [1]; females, 5 mg/kg",7.2 ± 3.2
same,"Analgesic effect, %","Wistar rats [1]; females, 5 mg/kg, control = 100.0",282.0 ± 125.9%
same,"Analgesic effect, total/analgesic effect","Wistar rats [1]; females, 10 mg/kg",10/8
same,Paw volume 0 hours,"Wistar rats [1]; females, 10 mg/kg",4.3 ± 2.2
same,Paw volume 3 hours,"Wistar rats [1]; females, 10 mg/kg",10.5 ± 7.2
same,"Analgesic effect, %","Wistar rats [1]; females, 10 mg/kg, control = 100.0",408.2 ± 279.3%
same,"Analgesic effect, total/analgesic effect","Wistar rats [1]; females, 20 mg/kg",10/9
same,Paw volume 0 hours,"Wistar rats [1]; females, 20 mg/kg",4.6 ± 3.3
same,Paw volume 3 hours,"Wistar rats [1]; females, 20 mg/kg",9.1 ± 7.4
same,"Analgesic effect, %","Wistar rats [1]; females, 20 mg/kg, control = 100.0",353.5 ± 289.7%
same,"Analgesic effect, total/analgesic effect","Wistar rats [1]; females, 50 mg/kg",10/7
same,Paw volume 0 hours,"Wistar rats [1]; females, 50 mg/kg",8.9 ± 5.7
same,Paw volume 3 hours,"Wistar rats [1]; females, 50 mg/kg",12.4 ± 6.5
same,"Analgesic effect, %","Wistar rats [1]; females, 50 mg/kg, control = 100.0",484.4 ± 251.8%
same,Dose at which a pronounced anesthetic effect is exhibited,Wistar rats [1]; intragastric,5 mg/kg
same,"Analgesic effect, total/analgesic effect","Wistar rats [1]; males, 5 mg/kg",10/7
same,"Analgesic effect, total/analgesic effect","Wistar rats [1]; males, 10 mg/kg",10/10
same,"Analgesic effect, total/analgesic effect","Wistar rats [1]; males, 20 mg/kg",10/9
same,"Analgesic effect, total/analgesic effect","Wistar rats [1]; males, 50 mg/kg",10/8
same,"Analgesic effect, %","Wistar rats [1]; rat, in vivo, 5 mg/kg",259.9 ± 229.7%
same,Paw volume 0 hours,"Wistar rats [1]; rat, in vivo, 5 mg/kg",4.4 ± 2.7
same,Paw volume 3 hours,"Wistar rats [1]; rat, in vivo, 5 mg/kg",5.5 ± 2.5
same,"Analgesic effect, %","Wistar rats [1]; rat, in vivo, 10 mg/kg",453.7 ± 159.9%
same,Paw volume 0 hours,"Wistar rats [1]; rat, in vivo, 10 mg/kg",4.2 ± 2.4
same,Paw volume 3 hours,"Wistar rats [1]; rat, in vivo, 10 mg/kg",12.0 ± 4.6
same,"Analgesic effect, %","Wistar rats [1]; rat, in vivo, 20 mg/kg",418.1 ± 215.7%
same,Paw volume 0 hours,"Wistar rats [1]; rat, in vivo, 20 mg/kg",6.4 ± 5.7
same,Paw volume 3 hours,"Wistar rats [1]; rat, in vivo, 20 mg/kg",12.0 ± 6.2
same,"Analgesic effect, %","Wistar rats [1]; rat, in vivo, 50 mg/kg",367.9 ± 220.1%
same,Paw volume 0 hours,"Wistar rats [1]; rat, in vivo, 50 mg/kg",3.4 ± 2.3
same,Paw volume 3 hours,"Wistar rats [1]; rat, in vivo, 50 mg/kg",10.6 ± 6.3
same,Dead animals,"Wistar rats [2]; 5000 mg/kg intragastric, female, three days later",1 rat
same,Clinical observation after administration,"Wistar rats [2]; 5000 mg/kg intragastric, symptom disappeared in 20-30 minutes",slight inhibition of the activity of the animal
same,Body mass increase,"Wistar rats [2]; 5000 mg/kg, 2 days after start",1-4%
same,Body mass increase,"Wistar rats [2]; 5000 mg/kg, 4 days after start",2-6%
same,Body mass increase,"Wistar rats [2]; 5000 mg/kg, eighth day",2-8%
same,Autopsy findings,"Wistar rats [2]; 5000 mg/kg, end of experiment",No changes were observed
same,Body mass increase,"Wistar rats [2]; 5000 mg/kg, end of the experiment",5-13%
same,Hazard class (GOST 12.1.007-76),Wistar rats [2]; intragastric administration,4th hazard class
same,Number of animals in the group/number of dead animals,"Wistar rats [2]; females, 5000 mg/kg intragastric",6/1
same,LD10,Wistar rats [2]; females,>5000
same,LD16,Wistar rats [2]; females,>5000
same,LD84,Wistar rats [2]; females,>5000
same,Number of animals in the group/number of dead animals,"Wistar rats [2]; males, 5000 mg/kg intragastric",6/0
same,LD10,Wistar rats [2]; males,>5000
same,LD16,Wistar rats [2]; males,>5000
same,LD84,Wistar rats [2]; males,>5000
same,COX isoform preference,cyclooxygenase (COX),preferential inhibitory activity against the isoform of COX-2
same,UD50,Wistar rats [3]; females,>2000 mg/kg
same,"Gastrotoxic effect (averaged), points",Wistar rats [3]; females,0.4 points
same,UD50,Wistar rats [3]; males,>2000 mg/kg
same,"Gastrotoxic effect (averaged), points",Wistar rats [3]; males,0.6 points
same,Times less gastrotoxic than naproxen (UD50),Wistar rats [3]; vs naproxen,40 times
same,UD50,Wistar rats [3]; without sex distinction,>2000 mg/kg
same,UD50,"Wistar rats [3]; without sex distinction, listed as compound of formula I",> 2000 mg/kg
